# According to the supplement of paper PMC10307832:
# Key:
# Assay in all cases: relative viability (nuclei count vs DMSO), 5 days (fraction); higher = more cells survive
# AZ23 = compound: CC(C)Oc1cc(Nc2nc(N[C@@H](C)c3ccc(F)cn3)ncc2Cl)n[nH]1 [AZ23]
# Procedure, shortened: (§1)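 Lung cancer cell lines were seeded into 1536-well plates, kept overnight at 37 °C and pinned with five library-drug doses (not always all listed) spaced by √10. After 5 days, nuclei were Hoechst-stained, imaged at 4× and counted with MetaXpress. Viability is treated-well nuclei over vehicle-well nuclei, taken as a median across plates. Plates needed control CV below 25% and at least one doubling.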
# Vatalanib = compound: Clc1ccc(Nc2nnc(Cc3ccncc3)c3ccccc23)cc1 [Vatalanib]
# Procedure, shortened: as §1
# [1] = compound: C[C@@H]1CN(CC(=O)Nc2ccc3c(c2)Cc2cccc(-c4cc(=O)cc(N5CCOCC5)o4)c2S3)C[C@H](C)O1
# Procedure, shortened: as §1
# HG-5-88-01 = compound: CC(C)S(=O)(=O)C1=CC=CC=C1NC2=NC(=NC(=C2Cl)N)NC3=C(C=C(C=C3)N4CCC(CC4)C(=O)N)OC [HG-5-88-01]
# Procedure, shortened: as §1
# Embelin = compound: CCCCCCCCCCCC1=C(O)C(=O)C=C(O)C1=O [Embelin]
# Procedure, shortened: as §1
Cell Line,relative viability (AZ23; 0.01 µM),relative viability (AZ23; 0.03162 µM),relative viability (AZ23; 0.3162 µM),relative viability (Vatalanib; 0.04 µM),relative viability (Vatalanib; 0.1265 µM),relative viability (Vatalanib; 0.4 µM),relative viability (Vatalanib; 1.265 µM),relative viability (Vatalanib; 4 µM),relative viability ([1]; 0.04 µM),relative viability ([1]; 0.1265 µM),relative viability ([1]; 0.4 µM),relative viability ([1]; 4 µM),relative viability (HG-5-88-01; 0.04 µM),relative viability (HG-5-88-01; 0.1265 µM),relative viability (HG-5-88-01; 0.4 µM),relative viability (HG-5-88-01; 1.265 µM),relative viability (HG-5-88-01; 4 µM),relative viability (Embelin; 0.08 µM),relative viability (Embelin; 0.8 µM),relative viability (Embelin; 2.53 µM),relative viability (Embelin; 8 µM)
NCI-H2009,1.01,1.1,1.09,1.15,0.928,1.1,0.952,0.98,1.05,1.01,0.935,0.766,1.05,1.07,0.931,0.951,0.947,1.01,1.19,0.959,1
NCI-H2023,,1.11,1.13,1.02,0.88,1.12,0.893,0.933,1.04,0.937,0.773,0.681,1.04,0.958,0.795,0.725,0.633,1,0.926,1.07,0.736
NCI-H2085,1.11,1.05,0.961,0.997,0.953,0.975,0.92,0.931,0.957,1.02,0.977,0.834,1.05,1.07,1.02,0.972,1.01,0.985,1.05,1.07,0.992
NCI-H2087,1.24,1.21,0.963,1.18,0.928,1.08,0.889,1.09,1.15,0.912,1.1,0.948,1.16,0.989,0.916,1.07,0.746,1.01,1.22,1.27,1.05
NCI-H2126,1.05,1.02,0.991,0.983,1,1.03,0.945,0.925,1.01,0.979,1,0.909,0.905,0.989,0.923,0.904,0.88,1.03,0.991,1.03,0.934
NCI-H2170,1.07,0.977,1.2,1.03,0.979,0.997,0.987,0.944,0.989,0.997,0.985,0.888,0.977,1.02,0.899,0.706,1.01,0.981,1.01,1.09,0.919
NCI-H2228,1.16,1.1,0.868,0.988,0.902,1.15,1.09,0.975,0.941,0.937,0.909,0.625,0.725,0.588,0.371,0.3,0.345,1,0.946,1.08,1.02
NCI-H2342,0.993,0.942,1.02,1,0.913,0.97,1.03,0.975,1.01,0.847,0.83,0.786,0.759,1.1,0.93,0.728,1.05,0.894,1.02,1.15,0.898
NCI-H2347,1.12,1.16,0.997,1.09,1.01,1.02,0.961,0.938,1.1,1.08,1.08,0.981,1.04,1.02,1.07,0.94,1.01,0.987,1.09,1.09,1.03
NCI-H2405,0.982,1.09,0.911,1.01,0.919,0.732,0.919,0.946,1.09,1.05,0.972,0.983,1.03,1,0.925,0.802,0.901,1.09,1.09,0.993,0.921
NCI-H3122,1.12,1.13,1.06,1.01,0.975,1.02,0.959,0.98,1.05,0.993,1.03,0.883,0.865,0.585,0.254,0.236,0.169,0.986,1.05,1.01,1.07
PC-3 [JPC-3],1.08,1.12,1.04,0.974,0.984,1,1.01,0.988,0.976,1.01,1.03,0.986,1.08,1.05,0.998,0.749,0.477,1.08,1.05,1.11,0.974
PC-14,0.748,1.22,1.08,1.01,0.921,0.905,0.904,0.958,1,0.943,1.02,0.863,1.05,0.985,0.901,0.735,0.38,0.997,1.15,1,1.06
RERF-LC-KJ,1.08,0.987,1.03,1.02,0.961,1.04,0.857,0.857,1.01,1.01,0.962,0.872,1.05,0.992,0.975,0.865,0.724,0.978,1.01,1.07,1
SK-LU-1,,1.14,1.08,1.09,0.993,1.14,1.04,1.05,1.04,1.04,1.1,0.853,0.982,1.04,0.998,0.876,0.708,1.13,1.19,1.26,0.928
SK-MES-1,0.745,1.08,1.08,1.03,0.913,1.09,0.971,0.893,1.09,1.05,0.923,0.8,0.983,0.962,0.966,0.924,1.05,1.02,1.07,1.13,0.954
